Laboratory results taken from the NIST ThermoML archive (doi:10.1016/j.tca.2012.05.023).

Assay: molar heat capacity at constant pressure
Conditions: 101.33 kPa, Crystal, Vacuum adiabatic calorimetry

O=C([O-])c1cnccn1.O=C([O-])c1cnccn1.O=C([O-])c1cnccn1.[Cr+3] [chromium(III) pyrazine-2-carboxylate]
Conditions	molar heat capacity at constant pressure [J/K/mol]
78.86 K	155.98
80 K	158.16
80.64 K	158.92
83.3 K	162.11
85 K	164.76
85.88 K	166.03
88.38 K	169.59
90 K	171.35
90.8 K	172.28
93.14 K	175.35
95 K	177.94
95.47 K	178.53
97.73 K	181.47
99.91 K	184.54
100 K	184.53
102.06 K	187.64
104.19 K	189.79
105 K	191.12
106.26 K	192.72
108.39 K	195.56
110 K	197.7
110.39 K	198.32
112.38 K	200.9
114.31 K	203.62
115 K	204.28
116.37 K	206.2
118.23 K	208.83
120 K	210.86
120.16 K	211.45
122.08 K	214.08
125 K	217.43
125.04 K	217.8
128.55 K	221.83
130 K	223.99
131.51 K	226.29
134.47 K	230.41
135 K	230.55
137.5 K	234.21
140 K	237.1
140.45 K	237.72
143.48 K	241.61
145 K	243.64
146.44 K	245.42
149.4 K	249.27
150 K	250.18
152.43 K	252.82
155 K	256.7
155.38 K	257.11
158.34 K	260.91
160 K	263.21
161.37 K	264.59
164.4 K	269.32
165 K	269.71
167.42 K	273.11
170 K	276.2
170.38 K	276.93
173.34 K	280.52
175 K	282.68
176.44 K	284.26
179.4 K	287.73
180 K	289.15
182.42 K	292.31
185 K	295.6
186.48 K	297.74
190 K	302.03
190.68 K	302.64
193.71 K	306.32
195 K	308.46
196.73 K	310.4
199.76 K	313.83
200 K	314.86
202.79 K	317.64
205 K	321.25
205.75 K	321.74
208.71 K	325.63
210 K	327.63
211.73 K	329.9
214.76 K	333.75
215 K	333.98
217.79 K	337.53
220 K	340.32
220.81 K	341.42
223.77 K	344.95
225 K	346.64
226.8 K	348.56
229.76 K	352.76
230 K	352.95
232.79 K	356.86
235 K	359.23
235.75 K	360.47
238.84 K	363.97
240 K	365.49
242.01 K	368.73
245 K	371.73
245.86 K	373.07
249.57 K	377.69
250 K	377.95
252.6 K	381.55
255 K	384.15
255.7 K	385.19
258.73 K	388.65
260 K	390.33
261.82 K	392.4
264.85 K	396.6
265 K	396.49
267.86 K	400.48
270 K	402.62
270.92 K	403.75
273.93 K	407.18
275 K	408.73
276.89 K	410.85
279.85 K	414.48
280 K	414.81
282.87 K	418.25
285 K	420.87
285.83 K	421.97
288.79 K	425.74
290 K	426.91
291.89 K	428.76
294.92 K	432.73
295 K	432.92
297.94 K	436.5
298.15 K	436.69
300 K	438.9
300.28 K	439.48
302.83 K	442.7
305 K	444.86
305.99 K	446.12
309.09 K	450.09
310 K	450.79
312.18 K	454.16
315 K	456.7
315.35 K	457.58
318.38 K	461.21
320 K	462.57
321.54 K	464.38
324.64 K	468.15
325 K	468.42
327.67 K	471.32
330 K	474.25
330.76 K	475.09
333.79 K	478.57
335 K	480.04
336.88 K	481.84
339.91 K	485.31
340 K	485.8
343.01 K	488.64
345 K	491.54
345.97 K	491.76
349.05 K	495.84
350 K	497.25
352.03 K	499.11
355 K	502.92
355.1 K	502.61
358.14 K	506.45
360 K	508.57
361.31 K	510.02
364.47 K	513.54
365 K	514.18
367.57 K	517.31
370 K	519.77
370.74 K	520.43
373.88 K	524.09
375 K	525.32
377.03 K	527.59
380 K	530.85
380.17 K	530.85
383.23 K	534.71
385 K	536.34
386.16 K	537.95
389.19 K	541.27
390 K	541.8
392.45 K	544.56
395 K	547.22
395.47 K	547.81
400 K	552.62
